In one assay the target is T1, bradykinin B2 receptor (Cavia porcellus, UniProt O70526).
T1 construct: preparations of membranes from the guinea pig ileum; from tissue; host or cells: guinea pig ileum membranes
T1 sequence (O70526 1-372): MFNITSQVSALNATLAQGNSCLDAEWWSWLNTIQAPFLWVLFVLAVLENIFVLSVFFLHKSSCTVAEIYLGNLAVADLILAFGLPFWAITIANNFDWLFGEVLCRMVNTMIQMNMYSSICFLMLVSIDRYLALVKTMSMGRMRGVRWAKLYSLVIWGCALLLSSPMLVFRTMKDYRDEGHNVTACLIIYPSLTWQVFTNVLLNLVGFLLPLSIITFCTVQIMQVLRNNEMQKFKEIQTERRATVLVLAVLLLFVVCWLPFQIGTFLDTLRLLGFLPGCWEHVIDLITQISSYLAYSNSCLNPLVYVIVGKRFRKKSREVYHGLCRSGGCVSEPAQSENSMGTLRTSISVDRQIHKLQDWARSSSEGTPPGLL
As to the kind of experiment: Affinity for the bradykinin B2 receptor on membrane preparations from guinea pig ileum (3H-bradykinin competition). Type of assay: binding. The note with it: 3H-bradykinin (0.25 to 0.3 nMol/l), guinea pig ileum membranes, pH 6.8, room temperature, 60 minutes. On the procedure: Determination of the affinity of the compounds of the formula (I) for the bradykinin B2 receptor took place on preparations of membranes from the guinea pig ileum (R. B. Innis et al., Proc. Natl. Acad. Sci. USA; […] (1981) 2630) by the following method:
1. Ligand: ^3 H-BRADYKININ (from NEN Du Pont)
25 mM TES (SIGMA, Order No.: T-4152)
1 mM 1,10-phenanthroline (SIGMA; Order No.: P-9375)
25 mM TES (SIGMA; Order No.: T-4152)
0.1% albumin, bovine (SIGMA; Order No.: A-7906)
140 μg/ml bacitracin (SIGMA; Order No.: B-0125)
1 mM dithiothreitol (SIGMA; Order No.: D-0632)
1 μM captopril-1-[(2S)-3-mercapto-2-methylpropionyl]-L-proline
Both buffers are adjusted to pH 6.8 with 5 molar NaOH.
Guinea pig ilea are carefully squeezed out to remove most of the intestinal contents and are cleaned in 0.9% strength NaCl solution.
The pieces of ilea about 2 cm long are transferred into ice-cold TES buffer (about 1 g/10 ml) and homogenized with an Ultraturrax in an ice bath for about 30 sec. The homogenate is then filtered through 3 layers of gauze and the filtrate is centrifuged at 50,000 g for 10 minutes.
The supernatant is discarded, and the pellet is rehomogenized in the same volume of TES buffer and again centrifuged at 50,000 g for 10 minutes. The pellet is rehomogenized in incubation buffer (about 1 g/5 ml) and frozen in 2 ml portions in cryotubes at -70° C.
The protein concentration in the finished membrane suspension is determined by the LOWRY method and should be about 15 μg/100 μl.
All the incubations are carried out in a volume of 200 μl in microtiter plates (96×300 μl) at room temperature for 60 minutes. All mixtures in incubation bufler. 50 μl of the radioligands, 50 μl of the product to be tested and 100 μl of the membrane suspension are successively pipetted into these in the wells of the microtiter plate. […]
a) Saturation experiments (hot saturation): […]
Nonspecific binding: The nonspecific binding must be determined for each concentration of the radioactive ligand. […]

The test system of assay [1] is bradykinin-induced contraction of the guinea pig ileum. As to the kind of experiment: Bradykinin-antagonistic effect on the bradykinin-induced contraction of the isolated guinea pig ileum. The note with it: Cavia porcellus, 10 min, Tyrode solution 37° C., antagonist action time 10 min. From the text: Furthermore, to determine the bradykinin-antagonistic effect of the compounds of the formula (I) it is possible to measure their effect on the bradykinin-induced contraction of the guinea pig ileum by the following protocol:
Guinea pigs weighing about 300 g (Morioth strain,--) are sacrificed by a blow to the back of the neck and are exsanguinated. A length of about 20 cm of ileum is dissected out and rinsed with Tyrode solution (Record syringe), thus removing intestinal contents. It is then divided into segments 1.5 cm long. These are fixed in organ baths with a capacity of 10 ml which are filled with Tyrode solution, and are connected to strain gauges (isometric contraction measurement). The initial load is 1 g. The Tyrode solution is heated in a water bath to 37° C., and compressed air is bubbled through.
After an interval of 30 min, the experiment is started. After recording the biological zero line, bradykinin is added to each organ bath in a final concentration of […], and the concentration is recorded. Then, after rinsing with Tyrode solution for 3 min and a resting period of 20 min, bradykinin is again added. The maximum contraction is reached (control). Rinsing and resting period repeated. The bradykinin antagonist is then added (action time 10 min.). […] The experiment is recorded on a pen recorder. […]

For orientation: Ki means the dissociation constant of the complex between target and ligand, obtained from inhibition or displacement. On bradykinin B2 receptor, `Cc1ccc2cccc(OCc3c(Cl)ccc(OCCNC(=O)/C=C/c4ccccc4)c3Cl)c2n1` [Example 5, 8-[2,6-dichloro-3-(trans-2-N-cinnamoylaminoethoxy)benzyloxy]-2-methylquinoline] gave a Ki of 61 nM.

As to `Cc1ccc2cccc(OCc3c(Cl)ccc(OCCNC(=O)/C=C/c4ccc(N)cc4)c3Cl)c2n1` [Example 2, 8-[3-(2-N-(trans-4-aminocinnamoyl)aminoethoxy)-2,6-dichlorobenzyloxy]-2-methylquinoline], the Ki at bradykinin B2 receptor was 20 nM. Compared with the last compound, the Ki is about 3-fold lower.

On bradykinin B2 receptor, `COc1ccc(/C=C/C(=O)NCCOc2ccc(Cl)c(COc3cccc4ccc(C)nc34)c2Cl)cc1` [Example 6, 8-[2,6-dichloro-3-(2-N-(trans-4-methoxycinnamoyl)aminoethoxy)benzyloxy]-2-methylquinoline] returned an inhibitory constant (Ki) of 32 nM.

One may read the IC50 as the midpoint of a concentration-inhibition curve. In assay [1], `Cc1ccc2cccc(OCc3c(Cl)ccc(OCCN)c3Cl)c2n1` [Example 1, 8-[3-(2-aminoethoxy)-2,6-dichlorobenzyloxy]-2-methylquinoline] had a 50% inhibitory concentration (IC50) of 1800 nM.

Values taken from US6140341A, “Aminoalkyl and acylaminoalkyl ethers, process for their preparation, and their use as bradykinin receptor antagonists” (Hoechst Aktiengesellschaft, priority 1996, dated 2000).
